# Measured values from patent US20250171438A1 (Agios Pharmaceuticals, Inc., priority 2022, published 2025).
# Target: T1, human PAH with the R408W mutation (Homo sapiens, UniProt P00439, R408W)
# T1 construct: expressed in transfected cells
# T1 sequence (P00439 1-452 R408W): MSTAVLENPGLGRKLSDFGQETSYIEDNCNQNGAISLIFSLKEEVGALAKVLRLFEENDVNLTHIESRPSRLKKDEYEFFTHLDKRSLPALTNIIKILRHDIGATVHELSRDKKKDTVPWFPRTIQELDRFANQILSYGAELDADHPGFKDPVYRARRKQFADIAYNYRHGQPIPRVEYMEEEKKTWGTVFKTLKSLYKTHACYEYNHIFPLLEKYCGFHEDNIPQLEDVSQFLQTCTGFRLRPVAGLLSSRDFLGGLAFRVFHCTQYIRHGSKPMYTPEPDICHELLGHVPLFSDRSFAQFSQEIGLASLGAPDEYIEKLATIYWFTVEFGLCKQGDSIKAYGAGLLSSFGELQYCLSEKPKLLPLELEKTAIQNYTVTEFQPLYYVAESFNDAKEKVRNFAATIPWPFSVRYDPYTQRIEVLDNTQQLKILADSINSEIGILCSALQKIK
# Test: Cell Based Phenylalanine Flux Assay
# Conditions: A375 cells expressing human R408W PAH; 24 hrs compound incubation; 13C-Tyrosine by LC-MS; average where tested multiple times; read-out: AC50
row,Compound,AC50
1,"Cc1ncoc1C(=O)N1C[C@H](C)c2[nH]cnc2[C@@H]1c1nc2ccccc2s1 [Example 1545, ((4R,7S)-4-(benzo[d]thiazol-2-yl)-7-methyl-1,4,6,7-tetrahydro-5H-imidazo[4,5-c]pyridin-5-yl)(4-methyloxazol-5-yl)methanone]",> 5 µM
2,"Cc1ncoc1C(=O)N1C[C@H](C)c2[nH]cnc2[C@H]1c1nc2ccccc2s1 [Example 1546, ((4S,7S)-4-(benzo[d]thiazol-2-yl)-7-methyl-1,4,6,7-tetrahydro-5H-imidazo[4,5-c]pyridin-5-yl)(4-methyloxazol-5-yl)methanone]",0.5 to 1 µM
3,"Cc1ncoc1C(=O)N1C[C@@H](C)c2[nH]cnc2[C@H]1c1nc2ccccc2s1 [Example 1547, ((4S,7R)-4-(benzo[d]thiazol-2-yl)-7-methyl-6,7-dihydro-1H-imidazo[4,5-c]pyridin-5(4H)-yl)(4-methyloxazol-5-yl)methanone]",1 to 5 µM
4,"Cc1ncoc1C(=O)N1C[C@@H](C)c2[nH]cnc2[C@@H]1c1nc2ccccc2s1 [Example 1548, ((4R,7R)-4-(benzo[d]thiazol-2-yl)-7-methyl-6,7-dihydro-1H-imidazo[4,5-c]pyridin-5(4H)-yl)(4-methyloxazol-5-yl)methanone]",> 5 µM
5,Cc1cc(C2(C(=O)N3CCc4[nH]cnc4[C@H]3c3nc4ccccc4s3)CC2)on1 [Example 1549],< 0.5 µM
6,"Cc1cc(C2(C(=O)N3CCc4[nH]cnc4[C@@H]3c3nc4ccccc4s3)CC2)on1 [Example 1550, (R)-(4-(benzo[d]thiazol-2-yl)-6,7-dihydro-1H-imidazo[4,5-c]pyridin-5(4H)-yl)(1-(3-methylisoxazol-5-yl)cyclopropyl)methanone]",1 to 5 µM
7,"C[C@@H]1CN(C(=O)c2ocnc2C2CC2)[C@H](c2nc3c(F)cccc3s2)c2nc[nH]c21 [Example 1551, (4-cyclopropyloxazol-5-yl)((4S,7R)-4-(4-fluorobenzo[d]thiazol-2-yl)-7-methyl-6,7-dihydro-1H-imidazo[4,5-c]pyridin-5(4H)-yl)methanone]",0.5 to 1 µM
8,"C[C@@H]1CN(C(=O)c2ocnc2C2CC2)[C@@H](c2nc3c(F)cccc3s2)c2nc[nH]c21 [Example 1552, (4-cyclopropyloxazol-5-yl)((4R,7R)-4-(4-fluorobenzo[d]thiazol-2-yl)-7-methyl-6,7-dihydro-1H-imidazo[4,5-c]pyridin-5(4H)-yl)methanone]",1 to 5 µM
9,Cn1cc(C(F)(F)C(=O)N2CCc3[nH]cnc3[C@H]2c2nc3ccccc3s2)cn1 [Example 1555],1 to 5 µM
10,"Cn1cc(C(F)(F)C(=O)N2CCc3[nH]cnc3[C@@H]2c2nc3ccccc3s2)cn1 [Example 1556, (R)-1-(4-(benzo[d]thiazol-2-yl)-6,7-dihydro-1H-imidazo[4,5-c]pyridin-5(4H)-yl)-2,2-difluoro-2-(1-methyl-1H-pyrazol-4-yl)ethanone]",1 to 5 µM
11,"O=C(c1oc(-c2ccccn2)nc1C1CC1)N1CCc2[nH]cnc2[C@@H]1c1nc2cccc(F)c2s1 [Example 1557, (R)-(4-cyclopropyl-2-(pyridin-2-yl)oxazol-5-yl)(4-(7-fluorobenzo[d]thiazol-2-yl)-6,7-dihydro-1H-imidazo[4,5-c]pyridin-5(4H)-yl)methanone]",0.5 to 1 µM
12,O=C(c1oc(-c2ccccn2)nc1C1CC1)N1CCc2[nH]cnc2[C@H]1c1nc2cccc(F)c2s1 [Example 1558],< 0.5 µM
13,"O=C(c1oc(C2CC2)nc1C(F)F)N1CCc2[nH]cnc2[C@H]1c1nc2c(F)cccc2s1 [Example 1571, (S)-(2-cyclopropyl-4-(difluoromethyl)oxazol-5-yl)(4-(4-fluorobenzo[d]thiazol-2-yl)-6,7-dihydro-1H-imidazo[4,5-c]pyridin-5(4H)-yl)methanone]",< 0.5 µM
14,"O=C(c1oc(C2CC2)nc1C(F)F)N1CCc2[nH]cnc2[C@@H]1c1nc2c(F)cccc2s1 [Example 1572, (R)-(2-cyclopropyl-4-(difluoromethyl)oxazol-5-yl)(4-(4-fluorobenzo[d]thiazol-2-yl)-6,7-dihydro-1H-imidazo[4,5-c]pyridin-5(4H)-yl)methanone]",0.5 to 1 µM
15,CN1CCN(c2nc(C(F)(F)F)c(C(=O)N3CCc4[nH]cnc4[C@H]3c3nc4ccccc4s3)o2)CC1 [Example 1573],< 0.5 µM

# The remaining lines, values ahead:
row,AC50,Compound
1,1 to 5 µM,"CC(C)(O)c1nc(C2CC2)c(C(=O)N2CCc3[nH]cnc3[C@@H]2c2nc3ccccc3s2)o1 [Example 1544, (R)-(4-(benzo[d]thiazol-2-yl)-6,7-dihydro-1H-imidazo[4,5-c]pyridin-5(4H)-yl)(4-cyclopropyl-2-(2-hydroxypropan-2-yl)oxazol-5-yl)methanone]"
2,< 0.5 µM,CC(C)(O)c1nc(C(F)(F)F)c(C(=O)N2CCc3[nH]cnc3[C@H]2c2nc3ccccc3s2)o1 [Example 1553]
3,< 0.5 µM,"CC(C)(O)c1nc(C(F)(F)F)c(C(=O)N2CCc3[nH]cnc3[C@@H]2c2nc3ccccc3s2)o1 [Example 1554, (R)-(4-(benzo[d]thiazol-2-yl)-6,7-dihydro-1H-imidazo[4,5-c]pyridin-5(4H)-yl)(2-(2-hydroxypropan-2-yl)-4-(trifluoromethyl)oxazol-5-yl)methanone]"
4,< 0.5 µM,O=C(c1oc(NC2CC2)nc1C(F)(F)F)N1CCc2[nH]cnc2[C@H]1c1nc2ccccc2s1 [Example 1559]
5,< 0.5 µM,"O=C(c1oc(NC2CC2)nc1C(F)(F)F)N1CCc2[nH]cnc2[C@@H]1c1nc2ccccc2s1 [Example 1560, (R)-(4-(benzo[d]thiazol-2-yl)-6,7-dihydro-1H-imidazo[4,5-c]pyridin-5(4H)-yl)(2-(cyclopropylamino)-4-(trifluoromethyl)oxazol-5-yl)methanone]"
6,< 0.5 µM,O=C(c1oc(C2(O)CCC2)nc1C(F)(F)F)N1CCc2[nH]cnc2[C@H]1c1nc2ccccc2s1 [Example 1565]
7,< 0.5 µM,"O=C(c1oc(C2(O)CCC2)nc1C(F)(F)F)N1CCc2[nH]cnc2[C@@H]1c1nc2ccccc2s1 [Example 1566, (R)-(4-(benzo[d]thiazol-2-yl)-6,7-dihydro-1H-imidazo[4,5-c]pyridin-5(4H)-yl)(2-(1-hydroxycyclobutyl)-4-(trifluoromethyl)oxazol-5-yl)methanone]"
8,0.5 to 1 µM,O=C(c1oc(/C=C/C2CC2)nc1C(F)(F)F)N1CCc2[nH]cnc2[C@H]1c1nc2ccccc2s1 [Example 1567]
9,1 to 5 µM,"O=C(c1oc(/C=C/C2CC2)nc1C(F)(F)F)N1CCc2[nH]cnc2[C@@H]1c1nc2ccccc2s1 [Example 1568, (R,E)-(4-(benzo[d]thiazol-2-yl)-6,7-dihydro-1H-imidazo[4,5-c]pyridin-5(4H)-yl)(2-(2-cyclopropylvinyl)-4-(trifluoromethyl)oxazol-5-yl)methanone]"
10,< 0.5 µM,CC(C)(O)/C=C/c1nc(C(F)(F)F)c(C(=O)N2CCc3[nH]cnc3[C@H]2c2nc3ccccc3s2)o1 [Example 1569]
11,< 0.5 µM,"CC(C)(O)/C=C/c1nc(C(F)(F)F)c(C(=O)N2CCc3[nH]cnc3[C@@H]2c2nc3ccccc3s2)o1 [Example 1570, (R,E)-(4-(benzo[d]thiazol-2-yl)-6,7-dihydro-1H-imidazo[4,5-c]pyridin-5(4H)-yl)(2-(3-hydroxy-3-methylbut-1-en-1-yl)-4-(trifluoromethyl)oxazol-5-yl)methanone]"
